Reference: patent US20100029734A1, “METHODS FOR BREAST CANCER SCREENING AND TREATMENT” (Ore Pharmaceuticals Inc., priority 2008, published 2010)
Entries after “also recorded” stand apart in the source; their conditions may differ.

Assays:
T47D (ER+, PR+) = details: T47D cells; cited from earlier work
T47D xenografts = experiment: Growth of ER+ breast cancer cell line xenografts in NODscid mice; format: in vivo; details: 3-5 weeks, female NODscid mice
Procedure: Female NODscid mice of age 5-6 weeks received a subcutaneous estrogen pellet implant (1.7 mg). Twenty four hours after estrogen pellet implantation, the mice received tumor implantation by subcutaneous injection of T47D cells to the flank (approximately 2.5×10^6 cells/mouse). The mice were ear-notched for identification and housed 4 animals per cage. […] Tumors were measured 3 times weekly using digital calipers. Body weight was measured twice weekly. Clinical observations were conducted weekly.

T47D (ER+ cell line) = experiment: RT-CES cell proliferation assay, T47D; format: cell-based, human
Procedure: (§1) Unless otherwise indicated, cell proliferation assays described in Examples 2-5 were performed using a Real-Time Cell Electronic Sensing (RT-CES™ 96X) instrument from ACEA Bioscience (San Diego, Calif.). This instrument utilizes an electronic readout (impedance) to non-invasively quantify adherent cell proliferation and viability in real time.
(§2) Cells were seeded in 96-well microtiter plates containing microelectronic sensor arrays (96E plates; ACEA). Cells were maintained in RPMI 1640 (Invitrogen, Carlsbad, Calif.) supplemented with 10% fetal bovine serum (FBS) (Hyclone, Logan, Utah) and were cultured at 37° C. in a humidified atmosphere containing 5% CO2. For proliferation assays, cells were seeded (20,000 cells/well), allowed to attach and grown overnight in standard growth medium. Cells were then serum-starved for 8 hours prior to the proliferation assay in presence or absence of test compound(s). The proliferation response was continuously monitored by measuring the impedance change in each well for the indicated number of hours. Data are expressed as cell index (CI) change relative to time in culture, reflecting measured changes in electrical impedance. Each value shown is an average of 6 wells.
(§3) T47D (American Type Culture Collection, Manassas, Va. (ATCC) cat. HTB-133) is an ER+ cell line derived from human mammary gland ductal carcinoma Other ER+ cell lines used in studies reported herein include ZR-75 and HCC70. HCC1143 (ATCC cat. CRL-2321) is an ER− cell line also derived from human mammary gland ductal carcinoma.
(§4) Following the 8 hour starvation phase, either Ang II (Sigma-Aldrich), 500 nM, or vehicle control was added to the cell culture. […] Ang II also stimulated proliferation of ER+ cell lines HCC70, by approximately 30%, and ZR-75, by approximately 35%, relative to vehicle control (data not shown).

HCC1143 (ER− cell line) = experiment: RT-CES cell proliferation assay, HCC1143; format: cell-based, human
Procedure: as §1, §2, §3, §4

[1] = test system: cells cultured from invasive ductal carcinomas; details: cells positive for ER and PR, cited from earlier work
invasive breast cancer = details: administered for 5 years; women having risk factors; cited from earlier work
HCC1937 = experiment: RT-CES cell proliferation assay, HCC1937; format: cell-based, human
Procedure: as §1
as §2, with “wells. […]” for “wells.”

HCC1954 = experiment: RT-CES cell proliferation assay, HCC1954; format: cell-based, human
Procedure: as §1
as §2, with “wells. […]” for “wells.”

HCC70 = experiment: RT-CES cell proliferation assay, HCC70; format: cell-based, human
Procedure: as §1
as §2, with “wells. […]” for “wells.”

T47D = details: cited from earlier work
ZR-75 = experiment: RT-CES cell proliferation assay, ZR-75; format: cell-based, human
Procedure: as §1
as §2, with “wells. […]” for “wells.”

MCF-7 = details: cited from earlier work
HCC1395 = experiment: RT-CES cell proliferation assay, HCC1395; format: cell-based, human
Procedure: as §1
as §2, with “wells. […]” for “wells.”

HCC38 = experiment: RT-CES cell proliferation assay, HCC38; format: cell-based, human
Procedure: as §1
as §2, with “wells. […]” for “wells.”

C[C@H](CS)C(=O)N1CCC[C@H]1C(=O)O [Captopril, (2S)-1-((2S)-2-methyl-3-sulfanylpropanoyl)pyrrolidine-2-carboxylic acid]
ER protein concentration (T47D (ER+, PR+)): reduced ER
PR protein concentration (T47D (ER+, PR+)): increased PR
[3H]thymidine incorporation (an index of cell proliferation) (T47D (ER+, PR+)): inhibited [3H]thymidine incorporation

CCOc1nc2cccc(C(=O)OC(C)OC(=O)OC3CCCCC3)c2n1Cc1ccc(-c2ccccc2-c2nnn[nH]2)cc1 (stereo not shown) [candesartan cilexetil]
growth in tumor volume (T47D xenografts; candesartan cilexetil 10, 30, 100 mg/kg p.o. once daily): reduced in a dose-dependent fashion

CCCCC1=NC2(CCCC2)C(=O)N1Cc1ccc(-c2ccccc2-c2nnn[nH]2)cc1 [irbesartan]
inhibition of Ang II-induced growth / cell proliferation (T47D (ER+ cell line); T47D, AT1 receptor antagonist 5 μM + Ang II 500 nM): significantly inhibited Ang II-induced growth; also recorded: reversed the Ang II effect
growth in tumor volume (T47D xenografts; irbesartan 30, 100, 300 mg/kg p.o. once daily): lowest dose tested (30 mg/kg) appeared to give the greatest effect
effect on cell proliferation (HCC1143 (ER− cell line); HCC1143, AT1 receptor antagonist 5 μM + Ang II 500 nM, data not shown): No effects

NCCCCC(NC(CCc1ccccc1)C(=O)O)C(=O)N1CCCC1C(=O)O.O.O (stereo not shown) [lisinopril, 1-(6-amino-2-(1-carboxy-3-phenyl-propyl)aminohexanoyl)pyrrolidine-2-carboxylic acid dihydrate]
ER protein concentration (T47D (ER+, PR+)): No such effects
PR protein concentration (T47D (ER+, PR+)): No such effects
[3H]thymidine incorporation (an index of cell proliferation) (T47D (ER+, PR+)): No such effects

CCCCc1nc(Cl)c(CO)n1Cc1ccc(-c2ccccc2-c2nn[nH]n2)cc1 [losartan]
effect on Ang II-stimulated proliferation [1]: blocked

CC/C(=C(\c1ccccc1)c1ccc(OCCN(C)C)cc1)c1ccccc1 [tamoxifen]
effect on Ang II-induced cell proliferation (T47D (ER+ cell line); T47D, tamoxifen 7.5 μM + Ang II 500 nM): reduced cell proliferation to a level lower than that of vehicle control
growth in tumor volume (T47D xenografts; tamoxifen 0.1, 0.3, 1.0 mg/kg p.o. once daily): reduced in a dose-dependent fashion
reduction of incidence of invasive breast cancer (invasive breast cancer): ~50%

CCCc1nc2c(C)cc(-c3nc4ccccc4n3C)cc2n1Cc1ccc(-c2ccccc2C(=O)O)cc1 [telmisartan]
inhibition of Ang II-induced growth (T47D (ER+ cell line); T47D, telmisartan 1.25 μM or 5 μM + Ang II 500 nM): significantly inhibited Ang II-induced growth
effect on cell proliferation (HCC1143 (ER− cell line); HCC1143, telmisartan 1.25 μM or 5 μM + Ang II 500 nM): No effects

Ang II: peptide angiotensin II, a major regulator of blood pressure and cardiovascular homeostasis; from Sigma-Aldrich (DRVYIHPF; Angiotensin-2; UniProt P01019 25-32, looked up)
Ang II proliferation response (HCC1937): negative
Ang II proliferation response (HCC1954): negative
Ang II proliferation response (HCC70; HCC70): positive
stimulation of proliferation relative to vehicle control (HCC70; HCC70 (ER+), Ang II, data not shown): approximately 30%
stimulation of cell growth by Ang II (T47D): significant stimulation of cell growth
Ang II proliferation response (ZR-75; ZR-75): positive
stimulation of proliferation relative to vehicle control (ZR-75; ZR-75 (ER+), Ang II, data not shown): approximately 35%
proliferative effect (MCF-7): dose-dependent proliferative effect
Ang II proliferation response (T47D (ER+ cell line); T47D): positive
effect of Ang II on growth / cell proliferation (T47D (ER+ cell line); T47D (ER+), Ang II 500 nM vs vehicle control, after 8 h serum starvation): significantly stimulated growth; also recorded: substantial increase in cell proliferation
Ang II proliferation response (HCC1395): negative
proliferation of cultured cells ([1]; Ang II): stimulated in a dose-dependent manner
Ang II proliferation response (HCC38): negative
Ang II proliferation response (HCC1143 (ER− cell line); HCC1143): negative
effect of Ang II on growth / cell proliferation (HCC1143 (ER− cell line); HCC1143 (ER−), Ang II 500 nM vs vehicle control): No effects
